Test results reported in patent US20050209278A1, “Piperidinyl- and piperazinyl-sulfonylmethyl hydroxamic acids and their use as protease inhibitors” (priority 2002, published 2005).

Molecular target: T1, MMP-9 (Homo sapiens, UniProt P14780)
T1 construct: made in house; host or cells: MMP-9-transfected HT1080 cells (spent media)
Experiment: In vitro MMP inhibition, Ki determination (fluorogenic substrate II)
Format: biochemical
Settings: value not in parenthesis
Outline: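 HT1080-derived MMP-9, activated with APMA, trypsin or MMP-3, incubated 1 hr at room temperature with inhibitor and 4 μM fluorogenic substrate II (at or below Km) in pH 7.5 Tris/NaCl/CaCl2 buffer; ex 330/em 420 nm. Ki from Morrison-equation regression, without substrate correction.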

T1 sequence (P14780 107-707 limits assumed): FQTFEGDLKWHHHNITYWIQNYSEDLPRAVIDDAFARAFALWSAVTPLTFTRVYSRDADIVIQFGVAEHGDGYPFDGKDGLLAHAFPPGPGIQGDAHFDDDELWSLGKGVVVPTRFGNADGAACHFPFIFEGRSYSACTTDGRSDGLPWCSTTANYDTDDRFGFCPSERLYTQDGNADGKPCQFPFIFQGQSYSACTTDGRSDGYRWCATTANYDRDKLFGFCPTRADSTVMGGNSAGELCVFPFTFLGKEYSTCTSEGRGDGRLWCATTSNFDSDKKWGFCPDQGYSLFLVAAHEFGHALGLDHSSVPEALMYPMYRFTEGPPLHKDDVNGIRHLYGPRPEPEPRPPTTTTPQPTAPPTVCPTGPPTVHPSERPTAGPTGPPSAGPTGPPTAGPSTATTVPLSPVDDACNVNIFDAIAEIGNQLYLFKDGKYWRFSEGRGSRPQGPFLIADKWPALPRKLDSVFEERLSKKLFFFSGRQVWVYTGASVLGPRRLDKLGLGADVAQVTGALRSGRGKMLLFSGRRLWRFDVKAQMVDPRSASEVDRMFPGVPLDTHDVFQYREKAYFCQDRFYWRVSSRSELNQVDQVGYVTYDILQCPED

SMILES	Ki [nM]
O=C(NO)C1(S(=O)(=O)N2CCN(c3ccc(COCC(F)(F)F)cc3)CC2)CCOCC1 [Example 72]	2.86
CC(C)COc1ccc(N2CCN(S(=O)(=O)C3(C(=O)NO)CCOCC3)CC2)cc1Cl [Example 79]	41.5
CCCCOc1ccc(N2CCN(S(=O)(=O)C3(C(=O)NO)CCN(c4nc5ccccc5s4)CC3)CC2)cc1 [Example 93]	60.1
CCCCc1ccc(N2CCN(S(=O)(=O)C3(C(=O)NO)CCN(c4ncccn4)CC3)CC2)nc1 [Example 99]	0.16
CCCCOc1ccc(N2CCN(S(=O)(=O)C3(C(=O)NO)CCN(C(=O)OCC(C)(C)C)CC3)CC2)cc1 [Example 97]	21.9
O=C(NO)C1(S(=O)(=O)N2CCN(c3ccc(CCC(F)(F)F)cc3)CC2)CCOCC1 [Example 77]	0.8
CCCCCc1ccc(N2CCN(S(=O)(=O)C3(C(=O)NO)CCN(c4ncccn4)CC3)CC2)nc1 [Example 95]	0.99
C#CCOC(=O)N1CCC(C(=O)NO)(S(=O)(=O)N2CCN(c3ccc(OCCCC)cc3)CC2)CC1 [Example 98]	1.24
CCCCc1ccc(C2CCN(S(=O)(=O)C3(C(=O)NO)CCN(CCOC)CC3)CC2)s1 [Example 55]	0.35
CCN1CCC(C(=O)NO)(S(=O)(=O)N2CCN(c3ccc(OCCCC(F)(F)F)cc3)CC2)CC1 [Example 78]	22.8
CCCCOc1ccc(N2CCN(S(=O)(=O)C3(C(=O)NO)CCN(C(C)(C)C)CC3)CC2)c(F)c1 [Example 84]	17.9
O=C(NO)C1(S(=O)(=O)N2CCN(c3ccc(OCCCCF)cc3)CC2)CCOCC1 [Example 89]	2.23
O=C(NO)C1(S(=O)(=O)N2CCN(c3ccc(C(F)(F)F)cn3)CC2)CCOCC1 [Example 94]	14.3
O=C(NO)C1(S(=O)(=O)N2CCN(c3ccc(OCCCC(F)(F)F)cc3F)CC2)CCOCC1 [Example 81]	29.2
O=C(NO)C1(S(=O)(=O)N2CCN(c3ccc(COCC(F)(F)C(F)F)cc3)CC2)CCOCC1 [Example 71]	13

Next, values leading:

Ki [nM]	SMILES
7.97	O=C(NO)C1(S(=O)(=O)N2CCN(c3ccc(OC4CCC4)c(F)c3)CC2)CCOCC1 [Example 73]
0.21	CCCCc1ccc(N2CCN(S(=O)(=O)C3(C(=O)NO)CCN(c4cccnc4)CC3)CC2)nc1 [Example 96]
4.8	O=C(NO)C1(S(=O)(=O)N2CCN(c3ccc(OCc4ccccc4)cn3)CC2)CCOCC1 [Example 74]
0.5	O=C(NO)C1(S(=O)(=O)N2CCN(c3ccc(-c4ccccc4)cc3)CC2)CCOCC1 [Example 76]
249	O=C(NO)C1(S(=O)(=O)N2CCN(c3cccc(C(F)(F)F)c3)CC2)CCOCC1 [Example 82]
0.452	CCCCc1ccc(N2CCN(S(=O)(=O)C3(C(=O)NO)CCOCC3)CC2)c(F)c1 [Example 91]
2.18	COCCN1CCC(C(=O)NO)(S(=O)(=O)N2CCN(c3ccc(OCCCCF)cc3)CC2)CC1 [Example 88]
4.21	O=C(NO)C1(S(=O)(=O)N2CCN(c3ccc(OCCCC(F)(F)F)cn3)CC2)CCOCC1 [Example 83]
1.17	CCCCOc1ccc(N2CCN(S(=O)(=O)C3(C(=O)NO)Cc4ccccc4C3)CC2)nc1 [Example 85]
73.9	CCCCOc1ccc(N2CCN(S(=O)(=O)C3(C(=O)NO)CCN(c4ccc(Cl)c(Cl)c4)CC3)CC2)cc1 [Example 250]
0.3	CCCCOc1ccc(N2CCN(S(=O)(=O)C3(C(=O)NO)CCOCC3)CC2)nc1 [Example 100]
2.15	CCCCOc1ccc(N2CCN(S(=O)(=O)C3(C(=O)NO)CCOCC3)CC2)c(F)c1 [Example 90]

Same assay, conditions: value outside parentheses

SMILES	Ki [nM]
CCCCOc1ccc(N2CCN(S(=O)(=O)C3(C(=O)NO)CCN(C(=O)c4ccccn4)CC3)CC2)cc1 [Example 277]	0.95
CCCCOc1ccc(N2CCN(S(=O)(=O)C3(C(=O)NO)CCN(C(=O)CO)CC3)CC2)cc1 [Example 271]	1.49
CCCCOc1ccc(N2CCN(S(=O)(=O)C3(C(=O)NO)CCN(c4ccc(C(F)(F)F)cn4)CC3)CC2)cc1 [Example 257]	37
CCCCOc1ccc(N2CCN(S(=O)(=O)C3(C(=O)NO)CCN(C(=O)c4cccnc4)CC3)CC2)cc1 [Example 266]	0.957
CCCCOc1ccc(N2CCN(S(=O)(=O)C3(C(=O)NO)CCN(c4ccc(Cl)cc4)CC3)CC2)cc1 [Example 251]	57.4
CCCCc1ccc(N2CCN(S(=O)(=O)C3(C(=O)NO)CCN(CCOC)CC3)CC2)nc1 [Example 270]	0.205
CCCCOc1ccc(N2CCN(S(=O)(=O)C3(C(=O)NO)CCN(C(=O)N(C)C)CC3)CC2)cc1 [Example 254]	0.63
CCCCOc1ccc(N2CCN(S(=O)(=O)C3(C(=O)NO)CCN(C(=O)C4CC4)CC3)CC2)cc1 [Example 260]	0.946
Cc1cc(N2CCN(S(=O)(=O)C3(C(=O)NO)CCOCC3)CC2)ccc1OC(C)C [Example 299]	43.6
COCCN1CCC(C(=O)NO)(S(=O)(=O)N2CCN(c3ccc(Oc4ccccc4)cc3)CC2)CC1 [Example 287]	13.9
CCCCOc1ccc(N2CCN(S(=O)(=O)C3(C(=O)NO)CCN(c4ccccc4)CC3)CC2)cc1 [Example 264]	20.4
CCc1ccc(N2CCN(S(=O)(=O)C3(C(=O)NO)CCCCC3)CC2)nc1 [Example 263]	0.634
CCCCOc1ccc(N2CCN(S(=O)(=O)C3(C(=O)NO)CCNCC3)CC2)cc1 [Example 276]	9.39
CCCCOc1ccc(N2CCN(S(=O)(=O)C3(C(=O)NO)CCN(C(=O)CC)CC3)CC2)cc1 [Example 274]	1.66
O=C(NO)C1(S(=O)(=O)N2CCC(c3ccc(-c4ccc(F)cc4F)cn3)CC2)CCOCC1 [Example 308]	11.3
CCCCOc1ccc(N2CCN(S(=O)(=O)C3(C(=O)NO)CCN(C(=O)COC)CC3)CC2)cc1 [Example 268]	1.08
CCCCOc1ccc(N2CCN(S(=O)(=O)C3(C(=O)NO)CCN(Cc4ccccc4)CC3)CC2)cc1F [Example 285]	9.83
COCCN1CCC(C(=O)NO)(S(=O)(=O)N2CCC(c3ccc(CCC(F)(F)F)cc3)CC2)CC1 [Example 309]	0.102
CC(C)CCOc1ccc(N2CCN(S(=O)(=O)C3(C(=O)NO)CCOCC3)CC2)cc1 [Example 279]	3.07
O=C(NO)C1(S(=O)(=O)N2CCC(c3ccc(Br)cn3)CC2)CCOCC1 [Example 306]	1.03
CCCCOc1ccc(N2CCN(S(=O)(=O)C3(C(=O)NO)CCN(C(=O)CN)CC3)CC2)cc1 [Example 292]	3.51
CCCCOc1ccc(N2CCN(S(=O)(=O)C3(C(=O)NO)CCN(CCOC)CC3)CC2)c(F)c1 [Example 284]	0.99
CCCCOc1ccc(N2CCN(S(=O)(=O)C3(C(=O)NO)CCN(C=O)CC3)CC2)cc1 [Example 269]	0.953
CCCCOc1ccc(N2CCN(S(=O)(=O)C3(C(=O)NO)CCN(C(=O)CC(F)(F)F)CC3)CC2)cc1 [Example 265]	2.14
CCCCCc1ccc(C2CCN(S(=O)(=O)C3(C(=O)NO)CCOCC3)CC2)nc1 [Example 305]	0.133
CCCCOc1ccc(N2CCN(S(=O)(=O)C3(C(=O)NO)CCN(C(=O)c4ccccc4)CC3)CC2)cc1 [Example 255]	2.54
CCCCOc1ccc(N2CCN(S(=O)(=O)C3(C(=O)NO)CCN(C(=O)C(C)C)CC3)CC2)cc1 [Example 273]	1.21

Other lines, results leading:

Ki [nM]	SMILES
0.24	COCCN1CCC(C(=O)NO)(S(=O)(=O)N2CCC(c3ccc(CCC(F)(F)C(F)(F)F)cc3)CC2)CC1 [Example 312]
457	O=C(NO)C1(S(=O)(=O)N2CCN(c3ccc(SC(F)(F)F)cc3)CC2)CCS(=O)(=O)CC1 [Example 258]
0.098	CCCCOc1ccc(N2CCN(S(=O)(=O)C3(C(=O)NO)CCN(C(C)=O)CC3)CC2)cc1 [Example 282]
1.57	CCCCOc1ccc(N2CCN(S(=O)(=O)C3(C(=O)NO)CCN(C(N)=O)CC3)CC2)cc1 [Example 253]
35.7	COCCN1CCC(C(=O)NO)(S(=O)(=O)N2CCC(c3ncc(CC(C)C)s3)CC2)CC1 [Example 311]
22.3	CCCCOc1ccc(N2CCN(S(=O)(=O)C3(C(=O)NO)CCNCC3)CC2)cc1F [Example 286]
1.53	CCc1ccc(N2CCN(S(=O)(=O)C3(C(=O)NO)CCCC3)CC2)nc1 [Example 261]
142	CS(=O)(=O)c1ccc(N2CCN(S(=O)(=O)C3(C(=O)NO)CCOCC3)CC2)cc1 [Example 300]
2.16	CCCCOc1ccc(N2CCN(S(=O)(=O)C3(C(=O)NO)CCN(c4ccc(Cl)nn4)CC3)CC2)cc1 [Example 281]
0.346	COCCN1CCC(C(=O)NO)(S(=O)(=O)N2CCC(c3ccc(CCCC(F)(F)F)cc3)CC2)CC1 [Example 310]
2	CCCCOc1ccc(N2CCN(S(=O)(=O)C3(C(=O)NO)CCN(C(=O)CCCC)CC3)CC2)cc1 [Example 278]
1.35	CCCCOc1ccc(N2CCN(S(=O)(=O)C3(C(=O)NO)CCN(C(=O)c4ccncc4)CC3)CC2)cc1 [Example 259]
0.807	CCCCOc1ccc(N2CCN(S(=O)(=O)C3(C(=O)NO)CCN(c4ccc(C)nn4)CC3)CC2)cc1 [Example 275]
0.542	CCCCCc1ccc(N2CCN(S(=O)(=O)C3(C(=O)NO)CCN(C4CC4)CC3)CC2)cc1 [Example 272]
3.61	CCCCOc1ccc(N2CCN(S(=O)(=O)C3(C(=O)NO)CCN(C)CC3)CC2)cc1 [Example 280]
1.43	CCCCOc1ccc(N2CCN(S(=O)(=O)C3(C(=O)NO)CCN(Cc4ccco4)CC3)CC2)cc1 [Example 252]
0.69	CCCCOc1ccc(N2CCN(S(=O)(=O)C3(C(=O)NO)CCN(c4ccc(O)nn4)CC3)CC2)cc1 [Example 283]
2.54	CCCCOc1ccc(N2CCN(S(=O)(=O)C3(C(=O)NO)CCN(C(=O)C(C)(C)C)CC3)CC2)cc1 [Example 267]
2.21	CCCCOc1ccc(N2CCN(S(=O)(=O)C3(C(=O)NO)CCN(Cc4cccnc4)CC3)CC2)cc1F [Example 293]
